Values quoted from earlier work, collected in US11304902B2, “Pharmaceutical compositions, preparation and uses thereof” (CURADIGM SAS, priority 2014, dated 2022).

Test system: CYP1A
Conditions: human CYP enzyme

role towards CYP1A (substrate / inhibitor / inducer): Inhibitor
Compound: COc1ccc(-c2cc(=O)c3c(O)cc(O)cc3o2)cc1 [Acacetin, acacetin]
